Target: baculovirus-expressed ALK (Homo sapiens, UniProt Q9UM73)
Test: ALK Kinase Assay (ELISA/TRF, PLC-γ substrate); further: 1 µM ATP (Km level)
Assay type: biochemical
Details: read-out: ALK Kinase Inhibition (IC50)
Method in brief: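 An ELISA adapted from a trkA format was used: wells carried GST-fused PLC-γ substrate, and enzyme addition (30 ng/ml ALK) started a 15-minute reaction at 37° C.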

Sequence of baculovirus-expressed ALK (Q9UM73 19-1620): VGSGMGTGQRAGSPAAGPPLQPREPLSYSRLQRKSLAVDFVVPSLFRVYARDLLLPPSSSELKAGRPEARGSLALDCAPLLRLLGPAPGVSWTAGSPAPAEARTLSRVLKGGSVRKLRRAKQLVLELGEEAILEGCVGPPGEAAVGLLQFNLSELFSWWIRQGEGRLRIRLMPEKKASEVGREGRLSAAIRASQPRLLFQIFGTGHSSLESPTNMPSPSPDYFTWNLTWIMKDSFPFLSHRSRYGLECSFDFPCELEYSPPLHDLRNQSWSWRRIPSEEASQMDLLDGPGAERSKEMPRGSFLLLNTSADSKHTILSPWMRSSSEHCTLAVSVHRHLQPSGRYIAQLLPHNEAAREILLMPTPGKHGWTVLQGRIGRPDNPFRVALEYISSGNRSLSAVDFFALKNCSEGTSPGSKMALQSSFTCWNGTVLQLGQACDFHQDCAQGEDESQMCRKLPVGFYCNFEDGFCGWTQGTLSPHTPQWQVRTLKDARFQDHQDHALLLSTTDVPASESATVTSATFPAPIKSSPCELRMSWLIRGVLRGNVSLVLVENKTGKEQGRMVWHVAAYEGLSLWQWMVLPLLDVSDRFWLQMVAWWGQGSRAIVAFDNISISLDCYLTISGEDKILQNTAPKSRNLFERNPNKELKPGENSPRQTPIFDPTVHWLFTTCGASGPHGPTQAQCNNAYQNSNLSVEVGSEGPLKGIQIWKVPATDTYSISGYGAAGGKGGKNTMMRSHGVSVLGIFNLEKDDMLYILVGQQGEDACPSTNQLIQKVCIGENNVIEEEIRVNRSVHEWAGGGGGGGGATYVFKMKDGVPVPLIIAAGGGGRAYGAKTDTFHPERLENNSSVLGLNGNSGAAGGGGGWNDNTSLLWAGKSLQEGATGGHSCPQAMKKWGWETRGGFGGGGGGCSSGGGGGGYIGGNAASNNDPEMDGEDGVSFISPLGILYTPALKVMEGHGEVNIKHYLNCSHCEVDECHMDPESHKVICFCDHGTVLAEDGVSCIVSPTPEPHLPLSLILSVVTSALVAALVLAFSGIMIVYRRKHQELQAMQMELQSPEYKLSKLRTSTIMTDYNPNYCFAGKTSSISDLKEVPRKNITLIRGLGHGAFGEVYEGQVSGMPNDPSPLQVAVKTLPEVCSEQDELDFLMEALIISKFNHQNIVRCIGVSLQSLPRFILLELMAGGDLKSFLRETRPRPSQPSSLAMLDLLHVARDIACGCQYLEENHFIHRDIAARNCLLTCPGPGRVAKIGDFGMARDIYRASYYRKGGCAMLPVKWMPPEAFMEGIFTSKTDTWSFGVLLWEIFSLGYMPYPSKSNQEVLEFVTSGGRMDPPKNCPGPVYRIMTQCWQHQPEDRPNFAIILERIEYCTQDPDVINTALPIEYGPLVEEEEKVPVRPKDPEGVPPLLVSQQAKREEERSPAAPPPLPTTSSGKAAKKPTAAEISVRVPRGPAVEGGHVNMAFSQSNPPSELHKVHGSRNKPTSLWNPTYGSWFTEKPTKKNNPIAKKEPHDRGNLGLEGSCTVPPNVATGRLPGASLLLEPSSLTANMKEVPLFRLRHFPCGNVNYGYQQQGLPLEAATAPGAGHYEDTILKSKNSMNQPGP

SMILES | IC50 [nM]
O=C(c1cccc(-c2cnc3c(c2)N(Cc2cc(Cl)ccc2C(F)(F)F)CCN3)c1)N1CCN(C(=O)C2CCCO2)CC1 (stereo not shown) [Example 351, (3-{1-[5-Chloro-2-(trifluoromethyl)benzyl]-1,2,3,4-tetrahydropyrido[2,3-b]pyrazin-7-yl}phenyl)-[4-(tetrahydrofuran-2-carbonyl)piperazin-1-yl]methanone] | 100 to 1000
O=C(c1cccc(-c2cnc3c(c2)N(Cc2cc(Cl)ccc2C(F)(F)F)CCN3)c1)N1CCC(N2CCOCC2)CC1 [Example 364, (3-{1-[5-Chloro-2-(trifluoromethyl)benzyl]-1,2,3,4-tetrahydropyrido[2,3-b]pyrazin-7-yl}phenyl)-(4-morpholin-4-ylpiperidin-1-yl)methanone] | 100 to 1000
NS(=O)(=O)c1ccc(CNC(=O)c2cccc(-c3cnc4c(c3)N(Cc3cc(Cl)ccc3C(F)(F)F)CCN4)c2)cc1 [Example 363, 3-{1-[5-Chloro-2-(trifluoromethyl)benzyl]-1,2,3,4-tetrahydropyrido[2,3-b]pyrazin-7-yl}-N-(4-sulfamoylbenzyl)benzamide] | 100 to 1000
O=C(c1ccc(-c2cnc3c(c2)N(Cc2cc(Cl)ccc2C(F)(F)F)CCN3)cc1)N1CCC(c2ccccc2)CC1 [Example 375, (4-{1-[5-Chloro-2-(trifluoromethyl)benzyl]-1,2,3,4-tetrahydropyrido[2,3-b]pyrazin-7-yl}phenyl)-(4-phenylpiperidin-1-yl)methanone] | 100 to 1000
COc1cccc(N2CCN(C(=O)c3cccc(-c4cnc5c(c4)N(Cc4cc(Cl)ccc4C(F)(F)F)CCN5)c3)CC2)c1 [Example 344, (3-{1-[5-Chloro-2-(trifluoromethyl)benzyl]-1,2,3,4-tetrahydropyrido[2,3-b]pyrazin-7-yl}phenyl)-[4-(3-methoxyphenyl)piperazin-1-yl]methanone] | 100 to 1000
O=C(c1ccc(-c2cnc3c(c2)N(Cc2cc(Cl)ccc2C(F)(F)F)CCN3)cc1)N1CCC2(CC1)OCc1ccccc12 [Example 434, {4-[1-(5-Chloro-2-trifluoromethyl-benzyl)-1,2,3,4-tetrahydropyrido[2,3-b]pyrazin-7-yl]-phenyl}-(spiro[isobenzofuran-1(3H), 4′-piperidine]-1-yl)methanone] | 100 to 1000
O=C(c1ccc(-c2cnc3c(c2)N(Cc2cc(Cl)ccc2C(F)(F)F)CCN3)cc1)N1CCN(CCc2ccccc2)CC1 [Example 424, (4-{1-[5-Chloro-2-(trifluoromethyl)benzyl]-1,2,3,4-tetrahydropyrido[2,3-b]pyrazin-7-yl}phenyl)-(4-phenethylpiperazin-1-yl)methanone] | 100 to 1000
O=C(NCc1cccc2ccccc12)c1ccc(-c2cnc3c(c2)N(Cc2cc(Cl)ccc2C(F)(F)F)CCN3)cc1 [Example 409, 4-{1-[5-Chloro-2-(trifluoromethyl)benzyl]-1,2,3,4-tetrahydropyrido[2,3-b]pyrazin-7-yl}-N-naphthalen-1-ylmethylbenzamide] | 1000 to 10000
O=C(c1ccc(-c2cnc3c(c2)N(Cc2cc(Cl)ccc2C(F)(F)F)CCN3)cc1)N1CCCC1c1cccnc1 (stereo not shown) [Example 431, (4-{1-[5-Chloro-2-(trifluoromethyl)benzyl]-1,2,3,4-tetrahydropyrido[2,3-b]pyrazin-7-yl}phenyl)-(2-pyridin-3-yl-pyrrolidin-1-yl)methanone] | 100 to 1000
O=C(c1cccc(-c2cnc3c(c2)N(Cc2cc(Cl)ccc2C(F)(F)F)CCN3)c1)N1CCC(c2c[nH]c3ccccc23)CC1 [Example 314, (3-{1-[5-Chloro-2-(trifluoromethyl)benzyl]-1,2,3,4-tetrahydropyrido[2,3-b]pyrazin-7-yl}phenyl)-[4-(1H-indol-3-yl)piperidin-1-yl]methanone] | 100 to 1000
O=C(c1ccc(-c2cnc3c(c2)N(Cc2cc(Cl)ccc2C(F)(F)F)CCN3)cc1)N1CCN(c2ncnc3ccsc23)CC1 [Example 382, (4-{1-[5-Chloro-2-(trifluoromethyl)benzyl]-1,2,3,4-tetrahydropyrido[2,3-b]pyrazin-7-yl}phenyl)-(4-thieno[3,2-d]pyrimidin-4-yl-piperazin-1-yl)methanone] | 100 to 1000
O=C(NCC1CCCO1)c1cccc(-c2cnc3c(c2)N(Cc2cc(Cl)ccc2C(F)(F)F)CCN3)c1 (stereo not shown) [Example 352, 3-{1-[5-Chloro-2-(trifluoromethyl)benzyl]-1,2,3,4-tetrahydropyrido[2,3-b]pyrazin-7-yl}-N-(tetrahydrofuran-2-ylmethyl)benzamide] | 100 to 1000
O=C(c1ccc(-c2cnc3c(c2)N(Cc2cc(Cl)ccc2C(F)(F)F)CCN3)cc1)N1CCN(c2cccc(Cl)c2)CC1 [Example 422, [4-(3-Chlorophenyl)piperazin-1-yl]-(4-{1-[5-chloro-2-(trifluoromethyl)benzyl]-1,2,3,4-tetrahydropyrido[2,3-b]pyrazin-7-yl}phenyl)methanone] | 100 to 1000
O=C(NCc1cccc(Cl)c1)c1ccc(-c2cnc3c(c2)N(Cc2cc(Cl)ccc2C(F)(F)F)CCN3)cc1 [Example 414, N-(3-Chloro-benzyl)-4-{1-[5-chloro-2-(trifluoromethyl)benzyl]-1,2,3,4-tetrahydropyrido[2,3-b]pyrazin-7-yl}benzamide] | 100 to 1000

Now from value to molecule:

IC50 [nM] | SMILES
100 to 1000 | O=C(NC1CCc2ccccc21)c1ccc(-c2cnc3c(c2)N(Cc2cc(Cl)ccc2C(F)(F)F)CCN3)cc1 (stereo not shown) [Example 410, 4-{1-[5-Chloro-2-(trifluoromethyl)benzyl]-1,2,3,4-tetrahydropyrido[2,3-b]pyrazin-7-yl}-N-indan-1-ylbenzamide]
100 to 1000 | O=C(c1cccc(-c2cnc3c(c2)N(Cc2cc(Cl)ccc2C(F)(F)F)CCN3)c1)N1CCN(c2ncccn2)CC1 [Example 307, (3-{1-[5-Chloro-2-(trifluoromethyl)benzyl]-1,2,3,4-tetrahydropyrido[2,3-b]pyrazin-7-yl}phenyl)-(4-pyrimidin-2-ylpiperazin-1-yl)methanone]
100 to 1000 | O=C(c1ccc(-c2cnc3c(c2)N(Cc2cc(Cl)ccc2C(F)(F)F)CCN3)cc1)N1CCN(c2ccc(Cl)c(Cl)c2)CC1 [Example 379, (4-{1-[5-Chloro-2-(trifluoromethyl)benzyl]-1,2,3,4-tetrahydropyrido[2,3-b]pyrazin-7-yl}phenyl)-[4-(3,4-dichlorophenyl)piperazin-1-yl]methanone]
100 to 1000 | O=C(c1cccc(-c2cnc3c(c2)N(Cc2cc(Cl)ccc2C(F)(F)F)CCN3)c1)N1CCC2(CC1)C(=O)NCN2c1ccccc1 [Example 318, 8-(3-{1-[5-Chloro-2-(trifluoromethyl)benzyl]-1,2,3,4-tetrahydropyrido[2,3-b]pyrazin-7-yl}benzoyl)-1-phenyl-1,3,8-triaza-spiro[4.5]decan-4-one]
100 to 1000 | O=C(c1cccc(-c2cnc3c(c2)N(Cc2cc(Cl)ccc2C(F)(F)F)CCN3)c1)N1CCN(c2ccccc2Cl)CC1 [Example 360, [4-(2-Chlorophenyl)piperazin-1-yl]-(3-{1-[5-chloro-2-(trifluoromethyl)benzyl]-1,2,3,4-tetrahydropyrido[2,3-b]pyrazin-7-yl}phenyl)methanone]
100 to 1000 | COc1ccc(N2CCN(C(=O)c3ccc(-c4cnc5c(c4)N(Cc4cc(Cl)ccc4C(F)(F)F)CCN5)cc3)CC2)cc1 [Example 411, (4-{1-[5-Chloro-2-(trifluoromethyl)benzyl]-1,2,3,4-tetrahydropyrido[2,3-b]pyrazin-7-yl}phenyl)-[4-(4-methoxyphenyl)piperazin-1-yl]methanone]
100 to 1000 | O=C(NCCc1ccccn1)c1ccc(-c2cnc3c(c2)N(Cc2cc(Cl)ccc2C(F)(F)F)CCN3)cc1 [Example 388, 4-{1-[5-Chloro-2-(trifluoromethyl)benzyl]-1,2,3,4-tetrahydropyrido[2,3-b]pyrazin-7-yl}-N-(2-pyridin-2-yl-ethyl)benzamide]
100 to 1000 | O=C(NCc1cccnc1)c1cccc(-c2cnc3c(c2)N(Cc2cc(Cl)ccc2C(F)(F)F)CCN3)c1 [Example 335, 3-{1-[5-Chloro-2-(trifluoromethyl)benzyl]-1,2,3,4-tetrahydropyrido[2,3-b]pyrazin-7-yl}-N-pyridin-3-ylmethylbenzamide]
100 to 1000 | NS(=O)(=O)c1ccc(CNC(=O)c2ccc(-c3cnc4c(c3)N(Cc3cc(Cl)ccc3C(F)(F)F)CCN4)cc2)cc1 [Example 429, 4-{1-[5-Chloro-2-(trifluoromethyl)benzyl]-1,2,3,4-tetrahydropyrido[2,3-b]pyrazin-7-yl}-N-(4-sulfamoylbenzyl)benzamide]
100 to 1000 | O=C(NC1CCN(Cc2ccccc2)CC1)c1ccc(-c2cnc3c(c2)N(Cc2cc(Cl)ccc2C(F)(F)F)CCN3)cc1 [Example 390, N-(1-Benzylpiperidin-4-yl)-4-{1-[5-chloro-2-(trifluoromethyl)benzyl]-1,2,3,4-tetrahydropyrido[2,3-b]pyrazin-7-yl}benzamide]
100 to 1000 | O=C(NCc1ccccc1Cl)c1cccc(-c2cnc3c(c2)N(Cc2cc(Cl)ccc2C(F)(F)F)CCN3)c1 [Example 348, N-(2-Chlorobenzyl)-3-{1-[5-Chloro-2-(trifluoromethyl)benzyl]-1,2,3,4-tetrahydropyrido[2,3-b]pyrazin-7-yl}benzamide]
< 100 | O=C(NC1CCN(Cc2ccccc2)CC1)c1cccc(-c2cnc3c(c2)N(Cc2cc(Cl)ccc2C(F)(F)F)CCN3)c1 [Example 327, N-(1-Benzylpiperidin-4-yl)-3-{1-[5-chloro-2-(trifluoromethyl)benzyl]-1,2,3,4-tetrahydropyrido[2,3-b]pyrazin-7-yl}benzamide]
< 100 | O=C(NC1CCN(Cc2ccccc2)C1)c1cccc(-c2cnc3c(c2)N(Cc2cc(Cl)ccc2C(F)(F)F)CCN3)c1 (stereo not shown) [Example 361, N-(1-Benzylpyrrolidin-3-yl)-3-{1-[5-chloro-2-(trifluoromethyl)benzyl]-1,2,3,4-tetrahydropyrido[2,3-b]pyrazin-7-yl}benzamide]
< 100 | Cc1cc(N2CCN(C(=O)c3ccc(-c4cnc5c(c4)N(Cc4cc(Cl)ccc4C(F)(F)F)CCN5)cc3)CC2)c2ccccc2n1 [Example 403, (4-{1-[5-Chloro-2-(trifluoromethyl)benzyl]-1,2,3,4-tetrahydropyrido[2,3-b]pyrazin-7-yl}phenyl)-[4-(2-methylquinolin-4-yl)piperazin-1-yl]methanone]

Reference: US7601716B2, “Pyridopyrazines and derivatives thereof as ALK and c-Met inhibitors” (Cephalon, Inc., priority 2006, dated 2009)
